pKi: −log10 of the molar value. Read-outs that look alike come from different tables or passages of the source.
Molecular target: T1, HIV protease (Human immunodeficiency virus type 1 group M subtype B, UniProt P04585)
T1 construct: A third viral enzyme known as protease then cleaves the polyproteins
Test: Enzymatic Assay for Determining the Inhibition Constant (Ki) of Synthetic Compounds Targeting the HIV Protease (fluorometric FRET assay)
Assay type: biochemical
Method in brief: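 Ki obtained via the Henderson equation from enzyme velocities with and without compound, accounting for substrate concentration and Km. Activity followed by FRET fluorescence from cleavage of a substrate flanked by EDANS donor and DABCYL acceptor.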

[1] = Anti-protease activity of Ne-amino acid substituted L-lysine derivatives and analogs of formula I, read-out: Ki

Row | Structure (SMILES) | pKi | also measured
1 | CNC(=O)N[C@@H](Cc1ccccc1)C(=O)NCCCC[C@@H](C(=O)O)N(CC(C)C)S(=O)(=O)c1ccc(C)cc1 [Example 198, Nα-Isobutyl-Nα-(4-methylbenzenesulfonyl)-Nε-(N′α-methylaminocarbonyl-L-phenylalanyl)-L-lysine] | 8.96 | –
2 | Cc1ccc(S(=O)(=O)N(CC(C)C)C(CCCCNC(=O)C(Cc2c[nH]c3ccccc23)NS(=O)(=O)c2ccccc2)C(=O)OCC(O)CO)cc1 [Example 104, Nα-Isobutyl-Nα-(4-methylbenzenesulfonyl)-Nε-(N′α-benzenesulfonyl-L-tryptophanyl)-L-lysine 2,3-Dihydroxypropyl Ester] | < 6.52 | –
3 | Cc1ccc(S(=O)(=O)N(CC(C)C)[C@@H](CCCCNC(=O)[C@H](CC(N)=O)NS(=O)(=O)c2ccccc2)C(=O)O)cc1 [Example 25] | 8.28 | –
4 | COC(=O)[C@H](CCCCNC(=S)[C@H](Cc1ccccc1)NS(=O)(=O)c1ccc(C)cc1)N(CC(C)C)S(=O)(=O)c1ccc(C)cc1 [Example 71, Nα-Isobutyl-Nα-(4-methylbenzenesulfonyl)-Nε-[N′α-(4-methylbenzenesulfonyl)-L-thiophenylalanyl]-L-lysine Methyl Ester] | < 6.52 | –
5 | Cc1ccc(S(=O)(=O)N(CC(C)C)[C@@H](CCCCNC(=O)[C@H](Cc2ccccc2)NS(=O)(=O)c2ccc(C(F)(F)F)cc2)C(=O)O)cc1 [Example 23, Nα-Isobutyl-Nα-(4-methylbenzenesulfonyl)-Nε-[N′α-(4-trifluoromethylbenzenesulfonyl)-L-phenylalanyl]-L-lysine] | 7.92 | –
6 | COc1ccc(S(=O)(=O)N(CC(C)C)[C@H](CO)CCCCNC(=O)[C@H](Cc2c[nH]c3ccccc23)NC(=O)C(C)(C)C)cc1 [Example 148, (2S,2′S) 2-N-Isobutyl-2-N-(4-methoxybenzenesulfonyl)-6-N-(N′α-pivaloyl-S-tryptophanyl)-2,6-diaminohexanol] | 8.72 | –
7 | COC(=O)[C@H](CCCCNC(=S)[C@H](Cc1c[nH]c2ccccc12)NS(=O)(=O)c1ccc(C)cc1)N(CC(C)C)S(=O)(=O)c1ccc(C)cc1 [Example 75, Nα-Isobutyl-Nα-(4-methylbenzenesulfonyl)-Nε-[N′α-(4-methylbenzenesulfonyl)-L-thiotryptophanyl]-L-lysine Methyl Ester] | < 6.52 | –
8 | Cc1ccc(S(=O)(=O)N(CC(C)C)[C@@H](CCCCNC(=O)[C@@H]2Cc3ccccc3CN2S(=O)(=O)c2ccc(C)cc2)C(=O)O)cc1 [Example 65] | 7.62 | –
9 | Cc1ccc(S(=O)(=O)N(CC(C)C)[C@@H](CCCCNC(=O)[C@@H](NC(=O)OC(C)(C)C)[C@@H](C)OCc2ccccc2)C(=O)O)cc1 [Example 84, Nα-Isobutyl-Nα-(4-methylbenzenesulfonyl)-Nε-(N′α-tert-butoxyearbonyl-O-benzyl-L-threonyl)-L-lysine] | 6.79 | –
10 | CC(C)CN([C@@H](CCCCNC(=O)[C@H](Cc1ccccc1)NS(=O)(=O)c1cccs1)C(=O)O)S(=O)(=O)c1ccc(N)cc1 [Example 46, Nα-(4-Aminobenzenesulfonyl)-Nα-isobutyl-Nε-[N′α-(2-thiophenesulfonyl)-L-phenylalanyl]-L-lysine] | 9.32 | –
11 | Cc1ccc(S(=O)(=O)N(CC(C)C)[C@H](CO)CCCCNC(=O)[C@H](Cc2ccccc2)NS(=O)(=O)c2cccs2)cc1 [Example 122, (2S,2′S) 2-N-Isobutyl-2-N-(4-methylbenzenesulfonyl)-6-N-[N′α-(2-thiophenesulfonyl)-S-phenylalanyl]-2,6-diaminohexanol] | – | pKi (Table 1, compounds of formula I, read-out: Ki (anti-protease activity)): 8.09
12 | Cc1ccc(S(=O)(=O)N(CC(=O)NCCCC[C@@H](CO)N(CC(C)C)S(=O)(=O)c2ccc(C)cc2)Cc2ccccc2)cc1 [Example 159, (2S) 2-N-Isobutyl-2-N-(4-methylbenzenesulfonyl)-6-N-[N′α-benzyl-N′α-(4-methylbenzenesulfonyl)glycyl]-2,6-diaminohexanol] | 7.00 | –
13 | Cc1ccc(S(=O)(=O)N(CC(C)C)[C@@H](CCCCNC(=O)[C@H](CC(N)=O)NC(=O)OCc2ccccc2)C(=O)O)cc1 [Example 48, Nα-Isobutyl-Nα-(4-Methylbenzenesulfonyl)-Nε-(N′α-benzyloxycarbonyl-L-asparagyl)-L-lysine] | 6.94 | –
14 | Cc1ccc(S(=O)(=O)N(CC(C)C)[C@@H](CCCCNC(=O)[C@H](Cc2ccccc2)NS(=O)(=O)c2cccs2)C(=O)NO)cc1 [Example 59, Nα-Isobutyl-Nα-(4-methylbenzenesulfonyl)-Nε-[N′α-(2-thiophenesulfonyl)-L-phenylalanyl]-L-lysine N-hydroxylamide] | 7.89 | –
15 | Cc1ccc(S(=O)(=O)N(CC(C)C)[C@@H](CCCCNC(=S)[C@H](Cc2c[nH]c3ccccc23)NS(=O)(=O)c2ccccc2)C(=O)O)cc1 [Example 74, Nα-Isobutyl-Nα-(4-methylbenzenesulfonyl)-Nε-(N′α-benzenesulfonyl-L-thiotryptophanyl)-L-lysine] | 8.32 | –
16 | CC(C)CN([C@H](CO)CCCCNC(=O)[C@H](Cc1c[nH]c2ccccc12)NC(=O)CC(C)(C)C)S(=O)(=O)c1ccc(N)cc1 [Example 185, (2S,2′S) 2-N-(4-Aminobenzenesulfonyl)-2-N-isobutyl-6-N-(N′α-tert-butylacetyl-S-tryptophanyl)-2,6-diaminohexanol] | 8.51 | –
17 | CN[C@@H](Cc1ccccc1)C(=O)NCCCC[C@@H](C(=O)O)N(CC(C)C)S(=O)(=O)c1ccc(C)cc1 [Example 88, Nα-Isobutyl-Nα-(4-methylbenzenesulfonyl)-Nε-(N′α-methyl-L-phenylalanyl)-L-lysine] | 8.68 | –
18 | Cc1ccc(S(=O)(=O)N(CC(C)C)[C@@H](CCCCNC(=O)[C@H](Cc2ccccc2)NS(=O)(=O)c2cccs2)C(=O)NCCO)cc1 [Example 60, Nα-Isobutyl-Nα-(4-methylbenzenesulfonyl)-Nε-[N′α-(2-thiophenesulfonyl)-L-phenylalanyl]-L-lysine Ethanolamide] | < 6.52 | –
19 | COc1ccc(CC(=O)N[C@@H](Cc2ccccc2)C(=O)NCCCC[C@@H](CO)N(CC(C)C)S(=O)(=O)c2ccc(C)cc2)cc1 [Example 162, (2S,2′S) 2-N-Isobutyl-2-N-(4-methylbenzenesulfonyl)-6-N-[N′α-(4-methoxyphenylacetyl)-S-phenylalanyl]-2,6-diaminohexanol] | 8.92 | –
20 | Cc1ccc(S(=O)(=O)N(CC(C)C)[C@H](CO)CCCCNC(=O)[C@H](Cc2c[nH]c3ccccc23)NS(=O)(=O)c2cccs2)cc1 [Example 129, (2S,2′S) 2-N-Isobutyl-2-N-(4-methylbenzenesulfonyl)-6-N-[N′α-(2-thiophenesulfonyl)-S-tryptophanyl]-2,6-diaminohexanol] | 9.00 | –
21 | Cc1ccc(S(=O)(=O)N(CC(C)C)[C@H](CO)CCCCNC(=O)[C@H](Cc2ccccc2)NC(=O)C(C)(C)C)cc1 [Example 119, (2S,2′S) 2-N-Isobutyl-2-N-(4-methylbenzenesulfonyl)-6-N-(N′α-pivaloyl-S-phenylalanyl)-2,6-diaminohexanol] | 8.41 | –
22 | Cc1ccc(S(=O)(=O)N(CC(C)C)[C@@H](CCCCNC(=O)[C@H](Cc2c[nH]c3ccccc23)NS(=O)(=O)c2ccc(N)cc2)C(=O)O)cc1 [Example 12, Nα-Isobutyl-Nα-(4-methylbenzenesulfonyl)-Nε-[N′α-(4-aminobenzenesulfonyl)-L-tryptophanyl]-L-lysine] | – | pKi [1]: 9.51
23 | Cc1ccc(S(=O)(=O)N[C@@H](Cc2ccccc2)C(=O)NCCCC[C@@H](C(=O)O)N(CC(C)C)S(=O)(=O)c2ccc(C)cc2)cc1 [Example 1, Nα-Isobutyl-Nα-(4-methylbenzenesulfonyl)-Nε-[N′α-(4-methylbenzenesulfonyl)-L-phenylalanyl]-L-lysine] | 8.96 | –
24 | COc1ccc(S(=O)(=O)N(CC2CCCC2)[C@H](CO)CCCCNC(=O)[C@H](Cc2c[nH]c3ccccc23)NC(C)=O)cc1 [Example 173, (2S,2′S) 2-N-Cyclopentylmethyl-2-N-(4-methoxybenzenesulfonyl)-6-N-(N′α-acetyl-S-tryptophanyl)-2,6-diaminohexanol] | 7.96 | –
25 | Cc1ccc(S(=O)(=O)N(CC(C)C)[C@H](CO)CCCCNC(=O)[C@H](Cc2c[nH]c3ccccc23)NS(=O)(=O)c2ccc([N+](=O)[O-])cc2)cc1 [Example 130, (2S,2′S) 2-N-Isobutyl-2-N-(4-methylbenzenesulfonyl)-6-N-[N′α-(4-nitrobenzenesulfonyl)-S-tryptophanyl]-2,6-diaminohexanol] | 7.57 | –
26 | CC(C)CN([C@H](CO)CCCCNC(=O)CN(Cc1ccccc1)c1ccccc1)S(=O)(=O)c1ccc(N)cc1 [Example 182, (2S) 2-N-(4-Aminobenzenesulfonyl)-2-N-isobutyl-6-N-(N′α-benzyl-N′α-phenylglycyl)-2,6-diaminohexanol] | 8.62 | –
27 | CC(C)CN([C@H](CO)CCCCNC(=O)[C@H](Cc1ccccc1)NC(=O)N1CCOCC1)S(=O)(=O)c1ccc(N)cc1 [Example 180, (2S,2′S) 2-N-(4-Aminobenzenesulfonyl)-2-N-isobutyl-6-N-[N′α-(4-morpholinecarbonyl)-S-phenylalanyl]-2,6-diaminohexanol] | 8.62 | –
28 | CC(C)COC(=O)N[C@@H](Cc1c[nH]c2ccccc12)C(=O)NCCCC[C@@H](CO)N(CC(C)C)S(=O)(=O)c1ccc(N)cc1 [Example 193, (2S,2′S) 2-N-(4-Aminobenzenesulfonyl)-2-N-isobutyl-6-N-(N′α-isobutoxycarbonyl-S-tryptophanyl)-2,6-diaminohexanol] | 8.39 | –
29 | Cc1ccc(S(=O)(=O)N(CC(=O)NCCCC[C@@H](C(=O)O)N(CC(C)C)S(=O)(=O)c2ccc(C)cc2)CC(C)C)cc1 [Example 55, Nα-Isobutyl-Nα-(4-methylbenzenesulfonyl)-Nε-[N′α-isobutyl-N′α-(4-methylbenzenesulfonyl)-glycyl]-L-lysine] | – | pKi [1]: 7.85
30 | Cc1ccc(S(=O)(=O)N[C@@H](CC2CCCCC2)C(=O)NCCCC[C@@H](C(=O)O)N(CC(C)C)S(=O)(=O)c2ccc(C)cc2)cc1 [Example 33, Nα-Isobutyl-Nα-(4-methylbenzenesulfonyl)-Nε-[N′α-(4-methylbenzenesulfonyl)-L-cyclohexylalanyl]-L-lysine] | 8.49 | –
